The text below walks through data of publication PMC2878737 (Channels (Austin, Tex.), 2009).

In the assay the target is NaV1.2 (Rattus norvegicus, UniProt P04775).

Molecules are shown by their SMILES.

Chain of NaV1.2 (P04775 whole entry, looked up): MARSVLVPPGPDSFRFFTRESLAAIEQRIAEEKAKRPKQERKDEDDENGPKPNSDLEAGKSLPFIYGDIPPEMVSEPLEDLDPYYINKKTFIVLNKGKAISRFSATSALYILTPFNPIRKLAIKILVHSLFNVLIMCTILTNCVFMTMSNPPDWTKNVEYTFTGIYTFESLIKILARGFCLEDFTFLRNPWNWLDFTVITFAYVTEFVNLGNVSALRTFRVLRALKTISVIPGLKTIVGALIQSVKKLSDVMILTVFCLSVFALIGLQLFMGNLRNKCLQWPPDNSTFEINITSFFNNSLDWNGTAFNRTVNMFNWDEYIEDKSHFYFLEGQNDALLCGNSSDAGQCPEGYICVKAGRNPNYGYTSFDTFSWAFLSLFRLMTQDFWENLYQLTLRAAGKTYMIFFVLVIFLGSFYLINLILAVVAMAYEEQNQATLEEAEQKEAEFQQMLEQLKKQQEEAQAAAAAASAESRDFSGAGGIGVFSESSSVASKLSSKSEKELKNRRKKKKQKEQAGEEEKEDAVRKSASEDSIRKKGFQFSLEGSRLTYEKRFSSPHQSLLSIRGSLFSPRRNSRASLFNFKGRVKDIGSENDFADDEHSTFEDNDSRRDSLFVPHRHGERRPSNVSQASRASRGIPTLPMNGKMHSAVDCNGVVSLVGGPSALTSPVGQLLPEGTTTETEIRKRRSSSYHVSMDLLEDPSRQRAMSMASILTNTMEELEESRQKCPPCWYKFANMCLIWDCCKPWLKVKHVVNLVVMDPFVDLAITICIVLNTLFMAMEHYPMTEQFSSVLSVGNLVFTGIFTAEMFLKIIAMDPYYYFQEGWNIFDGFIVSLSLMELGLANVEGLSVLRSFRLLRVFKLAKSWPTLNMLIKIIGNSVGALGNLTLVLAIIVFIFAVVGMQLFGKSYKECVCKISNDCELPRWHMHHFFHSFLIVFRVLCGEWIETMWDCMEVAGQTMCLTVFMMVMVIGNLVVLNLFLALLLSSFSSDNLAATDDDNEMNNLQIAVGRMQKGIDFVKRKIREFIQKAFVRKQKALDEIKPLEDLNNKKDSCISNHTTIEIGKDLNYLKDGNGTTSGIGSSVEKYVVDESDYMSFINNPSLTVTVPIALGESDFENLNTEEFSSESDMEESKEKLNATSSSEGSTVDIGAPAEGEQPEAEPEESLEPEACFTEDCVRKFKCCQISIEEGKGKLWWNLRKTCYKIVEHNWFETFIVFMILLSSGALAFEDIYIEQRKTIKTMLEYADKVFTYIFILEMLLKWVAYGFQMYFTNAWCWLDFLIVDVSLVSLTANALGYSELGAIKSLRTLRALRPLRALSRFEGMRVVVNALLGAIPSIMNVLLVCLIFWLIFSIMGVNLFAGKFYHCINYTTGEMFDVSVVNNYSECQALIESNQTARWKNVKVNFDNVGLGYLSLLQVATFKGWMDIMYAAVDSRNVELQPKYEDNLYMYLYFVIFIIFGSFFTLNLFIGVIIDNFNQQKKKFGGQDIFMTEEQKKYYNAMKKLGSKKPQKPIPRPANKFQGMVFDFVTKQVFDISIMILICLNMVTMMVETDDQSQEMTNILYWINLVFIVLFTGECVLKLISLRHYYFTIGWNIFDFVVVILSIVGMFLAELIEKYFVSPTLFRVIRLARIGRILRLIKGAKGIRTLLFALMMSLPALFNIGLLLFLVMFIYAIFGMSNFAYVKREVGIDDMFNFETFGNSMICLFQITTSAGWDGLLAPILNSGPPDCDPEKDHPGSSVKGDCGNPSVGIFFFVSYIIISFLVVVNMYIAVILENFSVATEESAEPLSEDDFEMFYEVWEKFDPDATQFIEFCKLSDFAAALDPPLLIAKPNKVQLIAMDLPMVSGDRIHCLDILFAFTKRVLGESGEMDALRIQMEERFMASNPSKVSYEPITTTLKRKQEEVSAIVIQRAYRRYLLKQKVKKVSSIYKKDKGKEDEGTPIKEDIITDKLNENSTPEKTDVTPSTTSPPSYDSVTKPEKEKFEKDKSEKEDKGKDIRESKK

For the compound `NC1=N[C@H](O)[C@H]2[C@H]3O[C@]4(O)O[C@@H]([C@@H](O)[C@@]2(N1)[C@@H]4O)[C@]3(O)CO` [TTX, Tetrodotoxin], the “block of residual INa persisting with KIIIA or KIIIA[K7A]” value is on record as “completely blocked”.
